Consider 1 compound from ChEMBL document CHEMBL1221190, “Therapeutic intervention based on protein prenylation and associated modifications” (Nat Chem Biol, 2006).

Assay [1] is described as follows: Inhibition of GGTase1.
Assay [2] is described as follows: Selectivity ratio of IC50 for farnesyltransferase to IC50 for GGTase1.

A word on the IC50: it is the concentration needed to halve the response being measured. Compound `CSCCc1c(-c2cccnc2)nn(-c2ccc(Cl)c(Cl)c2)c1OCCCC(=O)N[C@@H](Cc1ccccc1)C(N)=O` yielded an IC50 in assay [1] of 8 nM. Also, the Ratio IC50 in assay [2] was determined as 250.
